Holding throughout (type): biochemical
In one experiment the target is T1, μ opioid receptor (Homo sapiens, UniProt P35372).
T1 construct: expressed in transfected cells
Nature of the experiment: Inhibition of DAMGO-stimulated [35S]GTPγS binding. (Binding of GTPγS marks nucleotide exchange on a G protein.)

For the next experiment, the target named is T2, δ opioid receptor (Homo sapiens, UniProt P41143).
T2 construct: expressed in transfected cells
Nature of the experiment: Inhibition of DPDPE-stimulated [35S]GTPγS binding.

Another experiment deals with T3, κ opioid receptor (Homo sapiens, UniProt P41145).
T3 construct: expressed in transfected cells
Nature of the experiment: Inhibition of U69,593-stimulated [35S]GTPγS binding. The settings on record: for δ/κ (selectivity for κ relative to δ): ratio of Ke values δ/κ; for δ/κ (selectivity for κ relative to δ) / μ/κ (selectivity for κ relative to μ): fold; for μ/κ (selectivity for κ relative to μ): ratio of Ke values μ/κ.

Setting [1] is: cloned human μ receptor, agonist DAMGO, [35S]GTPγS binding, read-out: μ, DAMGO Ke.
Where [2] appears, read: cloned human δ receptor, agonist DPDPE, [35S]GTPγS binding, read-out: δ, DPDPE Ke.
Setting [3] is: cloned human κ receptor, agonist U69,593, [35S]GTPγS binding, read-out: κ, U69,593 Ke.

Read-outs that look alike come from different tables or passages of the source.

T2 sequence (P41143 whole entry): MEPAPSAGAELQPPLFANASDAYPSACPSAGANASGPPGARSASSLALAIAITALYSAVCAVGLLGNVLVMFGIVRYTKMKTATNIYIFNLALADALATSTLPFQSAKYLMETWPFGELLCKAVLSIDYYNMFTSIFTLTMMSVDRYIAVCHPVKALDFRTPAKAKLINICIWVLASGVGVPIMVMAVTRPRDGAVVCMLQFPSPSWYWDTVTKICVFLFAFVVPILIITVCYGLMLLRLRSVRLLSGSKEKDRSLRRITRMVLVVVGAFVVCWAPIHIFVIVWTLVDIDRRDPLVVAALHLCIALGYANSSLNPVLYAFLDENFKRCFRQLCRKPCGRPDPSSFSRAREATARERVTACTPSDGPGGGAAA
T1 sequence (P35372 whole entry): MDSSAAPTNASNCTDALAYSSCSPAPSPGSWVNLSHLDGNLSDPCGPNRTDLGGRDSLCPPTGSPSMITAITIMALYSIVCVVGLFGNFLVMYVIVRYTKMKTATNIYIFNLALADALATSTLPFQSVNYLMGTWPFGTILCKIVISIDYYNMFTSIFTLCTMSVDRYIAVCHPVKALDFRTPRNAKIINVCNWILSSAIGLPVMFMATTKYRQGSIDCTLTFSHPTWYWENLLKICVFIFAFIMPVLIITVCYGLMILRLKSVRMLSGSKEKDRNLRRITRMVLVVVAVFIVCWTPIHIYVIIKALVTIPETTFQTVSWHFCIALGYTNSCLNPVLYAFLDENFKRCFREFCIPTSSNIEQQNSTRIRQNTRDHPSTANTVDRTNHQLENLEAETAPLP
T3 sequence (P41145 whole entry): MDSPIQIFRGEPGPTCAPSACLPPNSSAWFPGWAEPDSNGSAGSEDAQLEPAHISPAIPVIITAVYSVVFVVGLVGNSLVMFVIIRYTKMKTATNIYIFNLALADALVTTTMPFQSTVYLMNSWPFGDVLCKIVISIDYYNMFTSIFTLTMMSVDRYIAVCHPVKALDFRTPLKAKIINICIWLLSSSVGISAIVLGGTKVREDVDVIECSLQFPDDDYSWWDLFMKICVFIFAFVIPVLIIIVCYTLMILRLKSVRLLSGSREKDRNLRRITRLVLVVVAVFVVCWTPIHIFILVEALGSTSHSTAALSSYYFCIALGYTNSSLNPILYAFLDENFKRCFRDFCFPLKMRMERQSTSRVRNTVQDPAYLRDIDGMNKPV

`CC(C)[C@@H](CC1CCCC1)NC(=O)[C@H]1Cc2ccc(O)cc2CN1` [Compound 40, (3R)—N-[(1R)-1-(Cyclopentylmethyl)-2-methylpropyl]-7-hydroxy-1,2,3,4-tetrahydroisoquinoline-3-carboxamide]: the Kb at μ opioid receptor (setting [1]) was determined as 344 ± 100 nM; on δ opioid receptor (setting [2]), 1570 ± 380 nM.

As for `CC(C)[C@@H](CN1CCCCC1C)NC(=O)[C@H]1Cc2ccc(O)cc2CN1` (stereo partly drawn) [Compound 12, (3R)-7-Hydroxy-N-{(1S)-2-methyl-1-[(2-methylpiperidin-1-yl)methyl]propyl}-1,2,3,4-tetrahydroisoquinoline-3-carboxamide], the Kb on μ opioid receptor (setting [1]) came to 44.9 ± 11 nM. For the same compound, the Kb at κ opioid receptor (setting [3]) stood at 15.1 ± 4.2 nM. Also, on κ opioid receptor, the “δ/κ (selectivity for κ relative to δ)” value is listed as 199 and the “μ/κ (selectivity for κ relative to μ)” value was 3.

`CC(C)[C@@H](CN1CCC(C(N)=O)CC1)NC(=O)[C@H]1Cc2ccc(O)cc2CN1` [Compound 22]: the Kb on μ opioid receptor (setting [1]) came out at 129 ± 26 nM. At κ opioid receptor (setting [3]), the Kb came to 3.22 ± 0.78 nM. In addition, on κ opioid receptor, the “δ/κ (selectivity for κ relative to δ)” value was 932 and the “μ/κ (selectivity for κ relative to μ)” value came out at 43.

Regarding `CC(C)[C@@H](CN1CCC(N(C)C)CC1)NC(=O)[C@H]1Cc2ccc(O)cc2CN1` [Compound 58, (3R)—N-[(1S)-1-{[4-(Dimethylamino)piperidin-1-yl]methyl}-2-methylpropyl]-7-hydroxy-1,2,3,4-tetrahydroisoquinoline-3-carboxamide], the values for the Kb on μ opioid receptor (setting [1]) and on κ opioid receptor (setting [3]) were 318 ± 8.4 nM and 8.08 ± 1.2 nM, respectively. At κ opioid receptor, the “δ/κ (selectivity for κ relative to δ)” value is greater than 371. On κ opioid receptor, the “μ/κ (selectivity for κ relative to μ)” value is 39.

For the compound `CCC1CCN(C[C@@H](NC(=O)[C@H]2Cc3ccc(O)cc3CN2)C(C)C)CC1` [Compound 24, (3R)—N-{(1S)-1-[(4-Ethylpiperidin-1-yl)methyl]-2-methylpropyl}-7-hydroxy-1,2,3,4-tetrahydroisoquinoline-3-carboxamide], the Kb turned out to be 74.8 ± 23 nM on μ opioid receptor (setting [1]), 2490 ± 620 nM on δ opioid receptor (setting [2]) and 2.48 ± 0.7 nM at κ opioid receptor (setting [3]). In addition, the “δ/κ (selectivity for κ relative to δ)” value at κ opioid receptor was 1004. Besides, the “μ/κ (selectivity for κ relative to μ)” value on κ opioid receptor is 30.

As to `CCN(CC)C[C@@H](NC(=O)[C@H]1Cc2ccc(O)cc2CN1)C(C)C` [Compound 11, (3R)—N-{(1S)-1-[(4,4-Diethylamino)methyl]-2-methylpropyl]-7-hydroxy-1,2,3,4-tetrahydroisoquinoline-3-carboxamide], on μ opioid receptor (cloned human μ receptor, agonist DAMGO, [35S]GTPγS binding), the “μ, DAMGO Ke” value was found to be 690 ± 110 nM. In addition, the Kb at δ opioid receptor (setting [2]) is reported as greater than 3000 nM. In addition, the “κ, U69,593 Ke” value on κ opioid receptor (cloned human κ receptor, agonist U69,593, [35S]GTPγS binding) came to 41.8 ± 12 nM. Also, at κ opioid receptor, the “δ/κ (selectivity for κ relative to δ)” value is greater than 72 and the “μ/κ (selectivity for κ relative to μ)” value came out at 16.5.

With `CC(C)[C@@H](CN1CCOCC1)NC(=O)[C@H]1Cc2ccc(O)cc2CN1` [Compound 5, (3R)-7-Hydroxy-N-[(1S)-2-methyl-1-(morpholin-4-ylmethyl)propyl]-1,2,3,4-tetrahydroisoquinoline-3-carboxamide], the Kb at κ opioid receptor (setting [3]) stood at 396 ± 140 nM.

For the compound `CC(C)[C@@H](CN1CCC(C)(C)CC1)NC(=O)[C@H]1Cc2ccc(O)cc2CN1` [Compound 9, (3R)—N-{(1S)-1-[(4,4-Dimethylpiperidin-1-yl)methyl]-2-methylpropyl}-7-hydroxy-1,2,3,4-tetrahydroisoquinoline-3-carboxamide], the Kb was 142 nM on μ opioid receptor (setting [1]), 847 nM at δ opioid receptor (setting [2]) and 2.09 ± 0.42 nM at κ opioid receptor (setting [3]). In addition, the “δ/κ (selectivity for κ relative to δ)” value at κ opioid receptor came to 405. Further, at κ opioid receptor, the “μ/κ (selectivity for κ relative to μ)” value was determined as 68.

Take `CC(C)[C@@H](CN1CCC(C(F)F)CC1)NC(=O)[C@H]1Cc2ccc(O)cc2CN1` [Compound 59, (3R)—N-[(1S)-1-{[4-(Difluoromethyl)piperidin-1-yl]methyl}-2-methylpropyl]-7-hydroxy-1,2,3,4-tetrahydroisoquinoline-3-carboxamide]: the Kb at μ opioid receptor (setting [1]) amounted to 70.9 ± 9.4 nM; at κ opioid receptor (setting [3]), 3.45 ± 1.2 nM.

On to `CC(C)[C@@H](CN1CCC(C(F)(F)F)CC1)NC(=O)[C@H]1Cc2ccc(O)cc2CN1` [Compound 14, (3R)-7-Hydroxy-N-[(1S)-2-methyl-1-{[4-(trifluoromethyl)piperidin-1-yl]methyl}propyl]-1,2,3,4-tetrahydroisoquinoline-3-carboxamide], for which the Kb at μ opioid receptor (setting [1]) was determined as 67.9 ± 12 nM. Also, the Kb at κ opioid receptor (setting [3]) was 4.69 ± 0.29 nM. Further, on κ opioid receptor, the “δ/κ (selectivity for κ relative to δ)” value was greater than 640 and the “μ/κ (selectivity for κ relative to μ)” value is 14.

With `O=C(NCCc1ccccc1)[C@H]1Cc2ccc(O)cc2CN1` [Compound 56, (3R)-7-Hydroxy-N-(2-phenylethyl)-1,2,3,4-tetrahydroisoquinoline-3-carboxamide], the values for the Kb at μ opioid receptor and on δ opioid receptor (setting [2]) were 277 ± 77 nM and greater than 3000 nM, respectively.

As to `CC1CCC(C[C@@H](NC(=O)[C@H]2Cc3ccc(O)cc3CN2)C(C)C)CC1` (stereo partly drawn) [Compound 66, (3R)-7-Hydroxy-N-{(1R)-2-methyl-1-[(4-methylcyclohexyl)methyl]propyl}-1,2,3,4-tetrahydroisoquinoline-3-carboxamide], the Kb at μ opioid receptor (setting [1]) was determined as 221 ± 41 nM.

As for `CC(C)[C@@H](CN1CCCCC1)NC(=O)[C@H]1Cc2ccc(O)cc2CN1` [Compound 3, (3R)-7-Hydroxy-N-[(1S)-2-methyl-1-(piperidin-1-ylmethyl)propyl]-1,2,3,4-tetrahydroisoquinoline-3-carboxamide], the Kb on δ opioid receptor was greater than 3000 nM.

Regarding `CC(C)CN(CC(C)C)C[C@@H](NC(=O)[C@H]1Cc2ccc(O)cc2CN1)C(C)C` [Compound 10, (3R)—N-{(1S)-1-{[Bis(2-methylpropyl)amino]methyl}-2-methylpropyl]-7-hydroxy-1,2,3,4-tetrahydroisoquinoline-3-carboxamide], the Kb at κ opioid receptor (setting [3]) was determined as 137 ± 24 nM.

With `CC1CCN(C[C@H](C(C)C)N(C)C[C@H]2Cc3ccc(O)cc3CN2)CC1` [Compound 53, (3R)-3-[(Methyl{(1S)-2-methyl-1-[(4-methylpiperidin-1-yl)methyl]propyl}amino)methyl]-1,2,3,4-tetrahydroisoquinolin-7-ol], the results for the Kb on μ opioid receptor, on δ opioid receptor (setting [2]) and at κ opioid receptor (setting [3]) were 647 ± 150 nM, greater than 3000 nM and 18.4 ± 2 nM, respectively. Besides, the “δ/κ (selectivity for κ relative to δ)” value on κ opioid receptor was greater than 163. Besides, on κ opioid receptor, the “μ/κ (selectivity for κ relative to μ)” value came to 35.

As for `CC(C)[C@@H](CN1CCC(F)(F)CC1)NC(=O)[C@H]1Cc2ccc(O)cc2CN1` [Compound 54, (3R)—N-{[(1S)-1-[4,4-Difluoropiperidin-1-yl]methyl]-2-methylpropyl}-7-hydroxy-1,2,3,4-tetrahydroisoquinoline-3-carboxamide], the results for the Kb at μ opioid receptor (setting [1]) and at κ opioid receptor (setting [3]) were 604 ± 83 nM and 11.8 ± 3 nM, respectively. In addition, the “δ/κ (selectivity for κ relative to δ)” value on κ opioid receptor is greater than 254. Further, the “μ/κ (selectivity for κ relative to μ)” value on κ opioid receptor was found to be 51.

With `CC(C)[C@@H](CN1CCN(C)CC1)NC(=O)[C@H]1Cc2ccc(O)cc2CN1` [Compound 19, (3R)-7-Hydroxy-N-{(1S)-2-methyl-1-[(4-methylpiperizin-1-yl)methyl]propyl}-1,2,3,4-tetrahydroisoquinoline-3-carboxamide], the Kb at μ opioid receptor (setting [1]) was 915 ± 303 nM. Besides, the Kb on κ opioid receptor (setting [3]) amounted to 98.8 ± 28 nM. Further, at κ opioid receptor, the “δ/κ (selectivity for κ relative to δ)” value is listed as greater than 333 and the “μ/κ (selectivity for κ relative to μ)” value is 9.

Turning to `CC1CCN(C[C@H](C(C)C)N(C)C(=O)[C@H]2Cc3ccc(O)cc3CN2)CC1` [Compound 30, (3R)-7-Hydroxy-N-methyl-N-{(1S)-2-methyl-1-[(4-methylpiperidin-1-yl)methyl]propyl}-1,2,3,4-tetrahydroisoquinoline-3-carboxamide], the Kb was 406 ± 86 nM on μ opioid receptor, greater than 3000 nM at δ opioid receptor (setting [2]) and 88.4 ± 17 nM at κ opioid receptor (setting [3]). Further, the “δ/κ (selectivity for κ relative to δ)” value at κ opioid receptor came to 34. For the same compound, at κ opioid receptor, the “μ/κ (selectivity for κ relative to μ)” value worked out at 4.6.

As for `CC(C)[C@@H](CO)NC(=O)[C@H]1Cc2ccc(O)cc2CN1` [Compound 4, (3R)-7-Hydroxy-N-[(1S)-1-(hydroxymethyl)-2-methylpropyl]-1,2,3,4-tetrahydroisoquinoline-3-carboxamide], the Kb at μ opioid receptor is greater than 3000 nM; on δ opioid receptor, greater than 3000 nM; at κ opioid receptor (κ, U69,593 Ke, cloned human κ receptor, agonist U69,593, [35S]GTPγS binding), 39.1 ± 3.8 nM. In addition, the “δ/κ (selectivity for κ relative to δ)” value on κ opioid receptor is listed as greater than 76. Moreover, the “μ/κ (selectivity for κ relative to μ)” value on κ opioid receptor is greater than 76.

Turning to `CC(C)[C@@H](CN1CCC(C#N)CC1)NC(=O)[C@H]1Cc2ccc(O)cc2CN1` [Compound 39, (3R)—N-{(1S)-1-[(4-Cyanopiperidin-1-yl)methyl]-2-methylprolyl}-7-hydroxy-1,2,3,4-tetrahydroisoquinoline-3-carboxamide], the Kb at μ opioid receptor (setting [1]) worked out at 647 ± 150 nM. The Kb on κ opioid receptor (setting [3]) amounted to 12.7 ± 3.1 nM. Moreover, at κ opioid receptor, the “δ/κ (selectivity for κ relative to δ)” value was greater than 236 and the “μ/κ (selectivity for κ relative to μ)” value was found to be 51.

On to `COC1CCN(C[C@@H](NC(=O)[C@H]2Cc3ccc(O)cc3CN2)C(C)C)CC1` [Compound 13, (3R)-7-Hydroxy-N-{(1S)-2-methyl-1-[(4-methoxypiperidin-1-yl)methyl]propyl}-1,2,3,4-tetrahydroisoquinoline-3-carboxamide], for which the Kb on μ opioid receptor (setting [1]) was found to be 198 ± 48 nM. Also, the Kb at κ opioid receptor (setting [3]) came out at 6.53 ± 1.8 nM. Further, on κ opioid receptor, the “δ/κ (selectivity for κ relative to δ)” value was greater than 459 and the “μ/κ (selectivity for κ relative to μ)” value is on record as 30.
